In US20110135750A1, “ANTI-ALLERGEN COMBINATIONS OF CALCIUM AND LANTHANUM” (priority 2008, published 2011):

Biological target: T1, Der p1 (Dermatophagoides pteronyssinus, UniProt P08176)
T1 construct: Allergen stock solutions were derived from the extraction of the rearing medium of dust mites Dermatophagoides pteronyssinus; from tissue; host or cells: rearing medium of dust mites Dermatophagoides pteronyssinus (crude extract)
T1 sequence (P08176 99-320): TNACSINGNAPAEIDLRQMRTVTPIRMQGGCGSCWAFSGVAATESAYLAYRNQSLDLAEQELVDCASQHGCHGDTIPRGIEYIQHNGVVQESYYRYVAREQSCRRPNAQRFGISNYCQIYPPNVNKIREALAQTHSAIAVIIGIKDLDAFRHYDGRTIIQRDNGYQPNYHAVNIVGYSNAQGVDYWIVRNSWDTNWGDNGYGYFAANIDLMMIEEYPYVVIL
Test: Allergen denaturing efficacy on Der p1-treated tissue, ELISA
Type: biochemical
Details: for Efficacy (%) on Der p1: tissue treated at 100 ml/m^2
Procedure: Allergen stock solutions were derived from the extraction of the rearing medium of dust mites Dermatophagoides pteronyssinus or by the extraction of cat exposed tissues. Allergens were always stored or diluted in Phosphate Buffered Saline (PBS) of pH 7.4 containing NaCl 8 g/L, KH2PO4 0.2 g/L, Na2HPO4 1.15 g/L, KCl 0.2 g/L, Tween 20 0.5 ml/L.
A tissue (Triconet: 40% PP, 60% Viscose, 0.7 mm thickness, 70 g/m^2) was treated with known amount of antigen, allowed to dry overnight and then treated with the allergen denaturing composition at 100 ml/m^2. The next day, the tissue was extracted in 5 ml of PBS and the concentration of allergen was determined by ELISA. ELISA tests were carried out according to the instructions of the commercially available test kits with monoclonal antibodies (www.inbio.com).
Briefly, anti-Der p1 or anti-Fel d1 monoclonal antibodies are diluted 1/1000 in 50 mM carbonate-bicarbonate buffer, pH 9.6. and 100 μl is coated on a polystyrene microtiter well and allowed to incubate overnight at 4° C. Then, wells are washed 3 times with PBS containing 0.05% Tween 20, pH 7.4. (further called: wash step with PBS-T). After incubation with 100 μl 1% BSA in PBS-T for 30 minutes at room temperature, another wash step is executed. Then, 100 μl of diluted allergen standard or test samples is added to each well and incubated for 1 hour at room temperature. After a wash step, 100 μl per well of 1/1000 diluted biotinylated anti-Der p1 or anti-Fel d1 monoclonal antibody is added and incubated for 1 hour at room temperature. Then, another wash step is executed and 100 μl/well of a Streptavidin-Peroxidase (Sigma S5512, reconstituted in 1 ml distilled water) is added as a 1/1000 dilution in PBS-T and incubated for 30 minutes at room temperature. After a final wash step, 100 μl/well of 1 mM ABTS (2,2′-azino-bis(3-ethylbenzthiazoline-6-sulfonic acid)diammonium salt) in 70 mM citrate phosphate buffer, pH 4.2, containing 0.03% H2O2, is added. The assay was allowed to develop after dark green colouring of the highest concentration of the allergen standard. Optical density was read at 405 nm.
Standard allergen dilution curves were taken for calibration. The range in which allergens can be quantified is 0.2-20 ppb for Fel d1 and from 1-100 ppb for Der p1. Dilutions were made until the concentration was in the right order of magnitude to enable quantification and percent reduction by the allergen denaturing composition.
Possible synergy was investigated using Limpet's formula (Richter, D. L., Pestic. Sci. 1987, 19: 309-315): […]
where Ec is the expected additive response, or calculated activity, X is the observed percentage control when component A is applied alone and Y is the observed percentage control when component B is applied alone. Synergy was considered to occur when the observed effect, or measured activity, of a combination of both components was greater than the corresponding Ec value.

Compound	Efficacy (%) on Der p1 (Ca^2+ 0.05% alone) [%]	Efficacy (%) on Der p1 (Ca^2+ 0.125% alone) [%]	Efficacy (%) on Der p1 (Ca^2+ 0.5% alone) [%]	Efficacy (%) Expected value (Ec) (Ca^2+ 1%, La^3+ 0%) [%]	Efficacy (%) Measured value (Ca^2+ 1%, La^3+ 0%) [%]	Efficacy (%) Synergy (measured minus expected) (Ca^2+ 1%, La^3+ 0%) [%]	Efficacy (%) on Der p1 (Ca^2+ 2.0% alone) [%]	Efficacy (%) on Der p1 (La^3+ 0.01% alone) [%]	Efficacy (%) on Der p1 (La^3+ 0.05% alone) [%]	Efficacy (%) on Der p1 (La^3+ 0.2% alone) [%]	Efficacy (%) on Der p1 (La^3+ 1.0% alone) [%]
[Ca+2] [Ca^2+]	0	0	28	46	46	0	96				
[La+3] [La^3+]								12	0	0	100
